Measured values as given in patent US12281108B2, “Pyrrolidinone derivatives as formyl peptide 2 receptor agonists” (BRISTOL-MYERS SQUIBB COMPANY, priority 2018, dated 2025).

What follows are molecules tested against T1, human FPR2 receptors (Homo sapiens, UniProt P25090) (assay: FPR2 cAMP assay in CHO cells overexpressing human FPR2 (HTRF)). Settings: CHO cells overexpressing human FPR2; forskolin 5 μM; inhibition of cAMP production; read-out: hFPR2 cAMP2 EC50.
T1 sequence (P25090 1-351): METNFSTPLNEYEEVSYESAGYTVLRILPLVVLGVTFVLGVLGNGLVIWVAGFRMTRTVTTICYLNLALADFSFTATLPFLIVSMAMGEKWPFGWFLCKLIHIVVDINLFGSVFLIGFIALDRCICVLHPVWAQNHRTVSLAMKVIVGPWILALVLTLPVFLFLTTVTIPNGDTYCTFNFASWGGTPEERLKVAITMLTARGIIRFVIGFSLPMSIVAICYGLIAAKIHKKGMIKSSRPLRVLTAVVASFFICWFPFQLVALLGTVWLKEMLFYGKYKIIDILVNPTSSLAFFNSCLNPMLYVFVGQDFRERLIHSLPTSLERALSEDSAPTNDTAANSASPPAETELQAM
Assay type: cell-based
From the text: N-formyl peptide receptors (FPRs) are a family of chemo attractant receptors that facilitate leukocyte response during inflammation. FPRs belong to the seven-transmembrane G protein-coupled receptor superfamily and are linked to inhibitory G-proteins (Gi). Three family members (FPR1, FPR2 and FPR3) have been identified in humans and are predominantly found in myeloid cells with varied distribution and have also been reported in multiple organs and tissues. After agonist binding, the FPRs activate a multitude of physiological pathways, such as intra cellular signaling transduction, Ca^2+ mobilization and transcription. The family interacts with a diverse set of ligands that includes proteins, polypeptides and fatty acid metabolites which activate both pro-inflammatory and pro-resolution downstream responses. FPR2 and FPR1 Cyclic Adenosine Monophosphate (cAMP) Assays were used to measure the in vitro activity of the compounds disclosed in this application.
FPR2 and FPR1 Cyclic Adenosine Monophosphate (cAMP) Assays. A mixture of forskolin (5 μM final for FPR2 or 10 μM final for FPR1) and IBMX (200 μM final) were added to 384-well Proxiplates (Perkin-Elmer) pre-dotted with test compounds in DMSO (1% final) at final concentrations in the range of 0.020 nM to 100 μM. Chinese Hamster Ovary cells (CHO) overexpressing human FPR1 or human FPR2 receptors were cultured in F-12 (Ham's) medium supplemented with 10% qualified FBS, 250 μg/ml zeocin and 300 μg/ml hygromycin (Life Technologies). Reactions were initiated by adding 2,000 human FPR2 cells per well or 4,000 human FPR1 cells per well in Dulbecco's PBS (with calcium and magnesium) (Life Technologies) supplemented with 0.1% BSA (Perkin-Elmer). The reaction mixtures were incubated for 30 min at room temperature. The level of intracellular cAMP was determined using the HTRF HiRange cAMP assay reagent kit (Cisbio) according to manufacturer's instruction. Solutions of cryptate conjugated anti-cAMP and d2 flurorophore-labelled cAMP were made in a supplied lysis buffer separately. Upon completion of the reaction, the cells were lysed with equal volume of the d2-cAMP solution and anti-cAMP solution. After a 1-h room temperature incubation, time-resolved fluorescence intensity was measured using the Envision (Perkin-Elmer) at 400 nm excitation and dual emission at 590 nm and 665 nm. A calibration curve was constructed with an external cAMP standard at concentrations ranging from 1 μM to 0.1 pM by plotting the fluorescent intensity ratio from 665 nm emission to the intensity from the 590 nm emission against cAMP concentrations. The potency and activity of a compound to inhibit cAMP production was then determined by fitting to a 4-parametric logistic equation from a plot of cAMP level versus compound concentrations.
Work on COc1cc(F)c([C@@H]2CNC(=O)[C@H]2Nc2cc(-c3ccc(Cl)cc3)on2)c(F)c1 [Example 21, (3S,4R)-3-{[5-(4-chlorophenyl)-1,2-oxazol-3-yl]amino}-4-(2,6-difluoro-4-methoxyphenyl)pyrrolidin-2-one] yielded an EC50 of 10 nM.

Same assay, conditions: hFPR2 assay; potency bins; read-out: hFPR2 agonist activity EC50
COc1cc(F)c([C@@H]2CNC(=O)[C@H]2Nc2nc3ccc(Cl)cc3o2)c(F)c1 [Example 1, (3S,4R)-3-[(6-chloro-1,3-benzoxazol-2-yl)amino]-4-(2,6-difluoro-4-methoxyphenyl)pyrrolidin-2-one] gave an EC50 of 150 to 1000 nM. COc1cc(F)c([C@@H]2CNC(=O)[C@H]2Nc2nnc(-c3ccc(Cl)cc3)s2)c(F)c1 [Example 2, (3S,4R)-3-{[5-(4-chlorophenyl)-1,3,4-thiadiazol-2-yl]amino}-4-(2,6-difluoro-4-methoxyphenyl)pyrrolidin-2-one] was tested, and the EC50 was ≤ 40 nM. COc1cc(F)c([C@@H]2CNC(=O)[C@H]2Nc2nnc(-c3ccc(Cl)cc3)o2)c(F)c1 [Example 3, (3S,4R)-3-{[5-(4-chlorophenyl)-1,3,4-oxadiazol-2-yl]amino}-4-(2,6-difluoro-4-methoxyphenyl)pyrrolidin-2-one] was tested, and the EC50 was ≤ 40 nM. COc1cc(F)c([C@@H]2CNC(=O)[C@H]2Nc2nnc(-c3ccccc3)o2)c(F)c1 [Example 4, (3S,4R)-4-(2,6-difluoro-4-methoxyphenyl)-3-[(5-phenyl-1,3,4-oxadiazol-2-yl)amino]pyrrolidin-2-one] was tested, and the EC50 was 150 to 1000 nM. Molecule COc1cc(F)c([C@@H]2CNC(=O)[C@H]2Nc2nnc(-c3ccc(F)c(F)c3)o2)c(F)c1 [Example 5, (3S,4R)-4-(2,6-difluoro-4-methoxyphenyl)-3-{[5-(3,4-difluorophenyl)-1,3,4-oxadiazol-2-yl]amino}pyrrolidin-2-one] has an EC50 of 150 to 1000 nM. COc1cc(F)c([C@@H]2CNC(=O)[C@H]2Nc2nnc(-c3cccnc3)o2)c(F)c1 [Example 6, (3S,4R)-4-(2,6-difluoro-4-methoxyphenyl)-3-{[5-(pyridin-3-yl)-1,3,4-oxadiazol-2-yl]amino}pyrrolidin-2-one] was tested, and the EC50 was 150 to 1000 nM. COc1cc(F)c([C@@H]2CNC(=O)[C@H]2Nc2nnc(-c3ccc(OC(F)(F)F)cc3)o2)c(F)c1 [Example 7, (3S,4R)-4-(2,6-difluoro-4-methoxyphenyl)-3-({5-[4-(trifluoromethoxy)phenyl]-1,3,4-oxadiazol-2-yl}amino)pyrrolidin-2-one] gave an EC50 of 40 to 150 nM. COc1cc(F)c([C@@H]2CNC(=O)[C@H]2Nc2nnc(-c3ccc(C(F)(F)F)cc3)o2)c(F)c1 [Example 8, (3S,4R)-4-(2,6-difluoro-4-methoxyphenyl)-3-({5-[4-(trifluoromethyl)phenyl]-1,3,4-oxadiazol-2-yl}amino)pyrrolidin-2-one] was tested, and the EC50 was ≤ 40 nM. Molecule COc1cc(F)c([C@@H]2CNC(=O)[C@H]2Nc2nnc(-c3ccc(C#N)cc3)o2)c(F)c1 [Example 9, 4-(5-{[(3S,4R)-4-(2,6-difluoro-4-methoxyphenyl)-2-oxopyrrolidin-3-yl]amino}-1,3,4-oxadiazol-2-yl)benzonitrile] has an EC50 of 150 to 1000 nM. In the case of COc1cc(F)c([C@@H]2CNC(=O)[C@H]2Nc2nnc(-c3ccc(C(F)(F)F)nc3)o2)c(F)c1 [Example 10, (3S,4R)-4-(2,6-difluoro-4-methoxyphenyl)-3-({5-[6-(trifluoromethyl)pyridin-3-yl]-1,3,4-oxadiazol-2-yl}amino)pyrrolidin-2-one], the EC50 is reported as ≤ 40 nM. For COc1cc(F)c([C@@H]2CNC(=O)[C@H]2Nc2nnc(-c3ccc(C)cc3)o2)c(F)c1 [Example 11, (3S,4R)-4-(2,6-difluoro-4-methoxyphenyl)-3-{[5-(4-methylphenyl)-1,3,4-oxadiazol-2-yl]amino}pyrrolidin-2-one], the EC50 was 150 to 1000 nM. COc1cc(F)c([C@@H]2CNC(=O)[C@H]2Nc2nnc(-c3ccc(F)cc3)o2)c(F)c1 [Example 12, (3S,4R)-4-(2,6-difluoro-4-methoxyphenyl)-3-{[5-(4-fluorophenyl)-1,3,4-oxadiazol-2-yl]amino}pyrrolidin-2-one] was tested, and the EC50 was 40 to 150 nM. For COc1cc(F)c([C@@H]2CNC(=O)[C@H]2Nc2nnc(-c3ccc(-n4cccn4)cc3)o2)c(F)c1 [Example 13, (3S,4R)-4-(2,6-difluoro-4-methoxyphenyl)-3-({5-[4-(1H-pyrazol-1-yl)phenyl]-1,3,4-oxadiazol-2-yl}amino)pyrrolidin-2-one], the EC50 was 150 to 1000 nM. Molecule COc1cc(F)c([C@@H]2CNC(=O)[C@H]2Nc2nnc(-c3ccc(C(F)(F)F)cn3)o2)c(F)c1 [Example 14, (3S,4R)-4-(2,6-difluoro-4-methoxyphenyl)-3-({5-[5-(trifluoromethyl)pyridin-2-yl]-1,3,4-oxadiazol-2-yl}amino)pyrrolidin-2-one] has an EC50 of 150 to 1000 nM. COc1cc(F)c([C@@H]2CNC(=O)[C@H]2Nc2nnc(-c3ccc(Cl)cc3F)o2)c(F)c1 [Example 15, (3S,4R)-3-{[5-(4-chloro-2-fluorophenyl)-1,3,4-oxadiazol-2-yl]amino}-4-(2,6-difluoro-4-methoxyphenyl)pyrrolidin-2-one] showed an EC50 of 150 to 1000 nM. For COc1cc(F)c([C@@H]2CNC(=O)[C@H]2Nc2nnc(-c3ccc(Cl)nc3)o2)c(F)c1 [Example 16, (3S,4R)-3-{[5-(6-chloropyridin-3-yl)-1,3,4-oxadiazol-2-yl]amino}-4-(2,6-difluoro-4-methoxyphenyl)pyrrolidin-2-one], the EC50 was ≤ 40 nM. COc1cc(F)c([C@@H]2CNC(=O)[C@H]2Nc2nnc(-c3ccc(C(F)F)cc3)o2)c(F)c1 [Example 17, (3S,4R)-4-(2,6-difluoro-4-methoxyphenyl)-3-({5-[4-(difluoromethyl)phenyl]-1,3,4-oxadiazol-2-yl}amino)pyrrolidin-2-one] was tested, and the EC50 was 40 to 150 nM. For COc1cc(F)c([C@@H]2CN(C)C(=O)[C@H]2Nc2nnc(-c3ccc(Cl)cc3)o2)c(F)c1 [Example 20, (3S,4R)-3-{[5-(4-chlorophenyl)-1,3,4-oxadiazol-2-yl]amino}-4-(2,6-difluoro-4-methoxyphenyl)-1-methylpyrrolidin-2-one], the EC50 was ≤ 40 nM. For COc1cc(F)c([C@@H]2CNC(=O)[C@H]2Nc2cc(-c3ccc(OC(F)(F)F)cc3)on2)c(F)c1 [Example 23, (3S,4R)-4-(2,6-difluoro-4-methoxyphenyl)-3-({5-[4-(trifluoromethoxy)phenyl]-1,2-oxazol-3-yl}amino)pyrrolidin-2-one], the EC50 was ≤ 40 nM. For COc1cc(F)c([C@@H]2CNC(=O)[C@H]2Nc2ncc(-c3ccc(Cl)cc3)o2)c(F)c1 [Example 24, (3S,4R)-3-{[5-(4-chlorophenyl)-1,3-oxazol-2-yl]amino}-4-(2,6-difluoro-4-methoxyphenyl)pyrrolidin-2-one], the EC50 was 150 to 1000 nM. With COc1cc(F)c([C@@H]2CNC(=O)[C@H]2Nc2nnc(C3CCC(F)(F)CC3)o2)c(F)c1 [Example 25, (3S,4R)-4-(2,6-difluoro-4-methoxyphenyl)-3-{[5-(4,4-difluorocyclohexyl)-1,3,4-oxadiazol-2-yl]amino}pyrrolidin-2-one] the EC50 was 150 to 1000 nM. COc1cc(F)c([C@@H]2CNC(=O)[C@H]2Nc2nnc(-c3ccc([S+]([O-])C(F)(F)F)cc3)o2)c(F)c1 (stereo partly drawn) [Example 26, (3S,4R)-4-(2,6-difluoro-4-methoxyphenyl)-3-{[5-(4-trifluoromethanesulfinylphenyl)-1,3,4-oxadiazol-2-yl]amino}pyrrolidin-2-one] was tested, and the EC50 was 150 to 1000 nM. COc1cc(F)c([C@@H]2CNC(=O)[C@H]2Nc2nnc(-c3ccc(SC(F)(F)F)cc3)s2)c(F)c1 [Example 29, (3S,4R)-4-(2,6-difluoro-4-methoxyphenyl)-3-[(5-{4-[(trifluoromethyl)sulfanyl]phenyl}-1,3,4-thiadiazol-2-yl)amino]pyrrolidin-2-one] was tested, and the EC50 was 40 to 150 nM. In the case of COc1cc(F)c([C@@H]2CNC(=O)[C@H]2Nc2nnc(-c3ccc(OC(F)(F)F)cc3)s2)c(F)c1 [Example 30, (3S,4R)-4-(2,6-difluoro-4-methoxyphenyl)-3-({5-[4-(trifluoromethoxy)phenyl]-1,3,4-thiadiazol-2-yl}amino)pyrrolidin-2-one], the EC50 is reported as 40 to 150 nM.
